The nature of this data set: Dynamic moisture (vapor) sorption of Form III. The class given is physicochemical.

SMILES strings stand for the structures. “Also recorded” adds a separate entry of the source.

On to `C[C@H]1CNCCc2ccc(Cl)cc21.C[C@H]1CNCCc2ccc(Cl)cc21.Cl.Cl.O` [(R)-8-chloro-1-methyl-2,3,4,5-tetrahydro-1H-3-benzazepine hydrochloride hemihydrate, Form III], for which the “Hygroscopicity (DMS / DVS)” value is reported as “substantially non-hygroscopic; also recorded: FIG. 9: non-hygroscopic”. The Water adsorbed result (90% RH) was “less than 0.5 wt %”.

Values taken from US8999970B2, “Administration of an anti-obesity compound to individuals with renal impairment” (Arena Pharmaceuticals, Inc., priority 2010, dated 2015).
